According to US8440724B2, “Inhibiting neurotransmitter reuptake” (Mayo Foundation for Medical Education and Research, priority 2008, dated 2013):

How the values were obtained:
mice = assay: Locomotor activity in motility chamber, mice; type: in vivo, mouse; conditions: 10 minute intervals for 3 hours, FIG. 11
hSERT, hNET, hDAT = assay: Human transporter binding: rank order and range of potency over the three transporters; conditions: for Potency (rank-order of potency of binding; S = hSERT, N = hNET, D = hDAT): from KD values
From the text: The program was modified to calculate the Hill coefficient (nH). Data are presented as geometric mean±S.E.M. of at least three independent experiments. One-component models and two-component models were compared using the root mean square error of each fit and the F test.

[1] = system: rat 5-HT, NE and DA transport, synaptosomal preparations; assay: Rat brain synaptosomal transport: rank order of potency; type: biochemical; conditions: from Ki values; S = 5HT, N = NE, D = DA
Procedure: (§1) The dissected tissues were separately homogenized in 20 volumes (cortical) or 40 volumes (striatal) of ice-cold, oxygenated HEPES buffer 0.32 M sucrose containing 11 mM glucose (pH 7.4) in a glass Potter-Elvehjem homogenizer with Teflon® pestle (8 strokes, 900 rpm). The homogenates were centrifuged at 1,000×g for 10 minutes. The resulting supernatant was decanted and further centrifuged at 20,000×g for 20 minutes at 4° C. […] The synaptosomal protein concentration was determined by using the BCA assay (Pierce Biotechnology Inc, Rockford, Ill.), according to the manufacturer's instructions. Synaptosomal protein (1.0-2.5 mg) was suspended in 1 mL oxygenated incubation buffer as defined above. Test amine compound was pre-incubated with the synaptosomal preparation for 30 minutes at 37° C. in a shaking water bath (80 oscillations/minute).

male C57BL/6J mice = assay: Tail suspension test (TST) in mice; type: in vivo, mouse; conditions: mice, 15 mg/kg IP, FIG. 10A
Procedure: When mice are suspended by their tail, there is an initial period of agitation, followed by immobility. This test identifies antidepressant compounds, which decrease the duration of immobility.
Test compounds were prepared by formulating the compounds with a pharmaceutically acceptable carrier such as saline. […] Each mouse was then subjected to the tail-suspension test (TST). Each mouse (n>3) was suspended by its tail 45 cm above the table top with the use of adhesive tape placed 1 cm from the tip of its tail. Behavior was scored every 5 seconds throughout the 6-minute test as either mobile or immobile (FIG. 10A-D) or total duration of immobility during the 6-minute test (FIGS. 10E and 10H). Mice were considered immobile only when hanging passively and completely motionless. Scores for each behavior were expressed as total counts per 6-minute session.

Male Sprague-Dawley rats = assay: Forced swim test in rats; type: in vivo, rat; conditions: 15 mg/kg IP, FIG. 12A
Procedure: When rats are placed in a cylinder of water from which they cannot escape, they will remain immobile in the water for the majority of the test.
Water was changed between trials, and the procedure involved a pretest and a 5-minute test separated by 24 hours. During the pretest, rats (adapted to the experimental room for no less than one hour) were placed in the cylinder for 15 minutes. Following this initial exposure, the rats were dried with towels and transferred to a “drying cage” situated under a warming lamp. […] The following day, rats were transferred to the experimental room and acclimated for at least one hour.
The rat was considered immobile when floating motionless or making only those movements necessary to keep its head above the surface of the water. Scores for each behavior (swimming or immobility) were expressed as total counts per 5-minute session. Statistical analysis was performed using ANOVA followed by the Tukey test for post-hoc comparisons.

[2] = biological target: T1, human serotonin transporter (hSERT) (Homo sapiens, UniProt P31645); assay: Radioligand binding to cloned hSERT, [3H]citalopram, HEK-293 cell membranes; conditions: Geometric Mean ± SEM; HCl salts; read-out: Equilibrium Dissociation Constant (KD) for Transporter Binding, hSERT (S)
T1 construct: expressed in transfected cells; host or cells: HEK-293, stably transfected
T1 sequence (P31645 whole entry): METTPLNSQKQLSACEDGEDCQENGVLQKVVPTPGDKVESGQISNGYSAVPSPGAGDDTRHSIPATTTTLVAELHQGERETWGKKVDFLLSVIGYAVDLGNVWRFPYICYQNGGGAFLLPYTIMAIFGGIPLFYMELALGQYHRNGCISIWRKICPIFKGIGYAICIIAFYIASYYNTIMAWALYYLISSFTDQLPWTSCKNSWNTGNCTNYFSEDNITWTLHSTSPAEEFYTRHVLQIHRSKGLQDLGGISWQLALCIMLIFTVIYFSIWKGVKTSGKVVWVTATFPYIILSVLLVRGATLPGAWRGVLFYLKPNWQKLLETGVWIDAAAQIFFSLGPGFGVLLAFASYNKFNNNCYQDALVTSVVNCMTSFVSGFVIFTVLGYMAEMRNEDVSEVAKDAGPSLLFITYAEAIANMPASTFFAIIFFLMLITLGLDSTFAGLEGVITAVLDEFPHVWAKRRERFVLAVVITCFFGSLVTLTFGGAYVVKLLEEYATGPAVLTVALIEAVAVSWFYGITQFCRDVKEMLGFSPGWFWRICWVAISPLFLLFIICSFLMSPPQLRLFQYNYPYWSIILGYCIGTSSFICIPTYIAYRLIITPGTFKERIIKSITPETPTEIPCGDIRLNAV

[3] = biological target: T2, human dopamine transporter (hDAT) (Homo sapiens, UniProt Q01959); assay: Radioligand binding to cloned hDAT, [3H]WIN35428, HEK-293 cell membranes; conditions: Geometric Mean ± SEM; HCl salts; read-out: Equilibrium Dissociation Constant (KD) for Transporter Binding, hDAT (D)
T2 construct: expressed in transfected cells; host or cells: HEK-293, stably transfected
T2 sequence (Q01959 whole entry): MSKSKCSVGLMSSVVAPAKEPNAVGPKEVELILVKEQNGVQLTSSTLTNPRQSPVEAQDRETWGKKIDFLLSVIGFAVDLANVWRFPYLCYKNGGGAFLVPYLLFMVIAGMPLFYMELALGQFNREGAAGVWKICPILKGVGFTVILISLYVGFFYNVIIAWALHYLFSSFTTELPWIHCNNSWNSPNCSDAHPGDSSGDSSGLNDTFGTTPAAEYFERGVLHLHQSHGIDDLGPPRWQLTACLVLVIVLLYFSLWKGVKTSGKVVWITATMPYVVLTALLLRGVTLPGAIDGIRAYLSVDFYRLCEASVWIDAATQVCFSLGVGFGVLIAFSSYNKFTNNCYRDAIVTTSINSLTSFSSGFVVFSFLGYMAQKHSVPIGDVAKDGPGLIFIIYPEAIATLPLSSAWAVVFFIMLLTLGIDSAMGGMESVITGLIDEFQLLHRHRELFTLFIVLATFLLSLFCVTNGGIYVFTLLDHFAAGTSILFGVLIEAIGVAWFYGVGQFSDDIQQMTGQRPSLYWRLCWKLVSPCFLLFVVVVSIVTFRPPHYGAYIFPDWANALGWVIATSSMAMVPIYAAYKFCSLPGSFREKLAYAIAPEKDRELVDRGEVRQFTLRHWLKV

[4] = system: human serotonin, norepinephrine and dopamine transporters; assay: Transport into cells expressing human transporters: rank order of potency, comparison with rat; type: cell-based; conditions: from Ki values; S = 5-HT, N = NE, D = DA
[5] = biological target: T3, rat serotonin transporter, synaptosomal preparations (Rattus norvegicus, UniProt P31652); assay: Inhibition of [3H]5-HT reuptake in rat brain synaptosomes (frontal cortex); type: biochemical; conditions: Geometric Mean ± SEM; rat brain synaptosomes; read-out: Inhibitor Constant (Ki), 5HT transport
T3 construct: from tissue; host or cells: rat frontal cortex synaptosomes (male Sprague-Dawley)
T3 sequence (P31652 whole entry): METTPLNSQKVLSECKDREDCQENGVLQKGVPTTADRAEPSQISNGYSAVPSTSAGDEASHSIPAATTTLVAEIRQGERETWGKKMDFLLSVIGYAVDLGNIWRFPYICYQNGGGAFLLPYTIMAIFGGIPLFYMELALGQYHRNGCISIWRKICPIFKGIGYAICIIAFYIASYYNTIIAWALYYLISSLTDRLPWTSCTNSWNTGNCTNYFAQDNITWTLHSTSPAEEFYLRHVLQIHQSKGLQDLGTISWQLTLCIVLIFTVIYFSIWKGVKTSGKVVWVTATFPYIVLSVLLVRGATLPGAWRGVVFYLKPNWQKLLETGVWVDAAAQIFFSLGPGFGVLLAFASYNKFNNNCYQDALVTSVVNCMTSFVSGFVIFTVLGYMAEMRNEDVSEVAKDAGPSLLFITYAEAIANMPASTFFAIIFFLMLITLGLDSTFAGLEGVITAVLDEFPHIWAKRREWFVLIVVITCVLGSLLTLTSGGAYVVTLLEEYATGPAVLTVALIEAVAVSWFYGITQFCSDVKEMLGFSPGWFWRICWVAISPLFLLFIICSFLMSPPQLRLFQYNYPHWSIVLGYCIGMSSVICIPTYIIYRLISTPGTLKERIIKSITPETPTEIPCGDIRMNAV
Procedure: as §1

[6] = biological target: T4, rat norepinephrine transport, synaptosomal preparations (Rattus norvegicus, UniProt Q63380); assay: Inhibition of [3H]NE reuptake in rat brain synaptosomes (occipital cortex); type: biochemical; conditions: Geometric Mean ± SEM; rat brain synaptosomes; read-out: Inhibitor Constant (Ki), NE transport
T4 construct: from tissue; host or cells: rat occipital cortex synaptosomes (male Sprague-Dawley)
T4 sequence (Q63380 1-617): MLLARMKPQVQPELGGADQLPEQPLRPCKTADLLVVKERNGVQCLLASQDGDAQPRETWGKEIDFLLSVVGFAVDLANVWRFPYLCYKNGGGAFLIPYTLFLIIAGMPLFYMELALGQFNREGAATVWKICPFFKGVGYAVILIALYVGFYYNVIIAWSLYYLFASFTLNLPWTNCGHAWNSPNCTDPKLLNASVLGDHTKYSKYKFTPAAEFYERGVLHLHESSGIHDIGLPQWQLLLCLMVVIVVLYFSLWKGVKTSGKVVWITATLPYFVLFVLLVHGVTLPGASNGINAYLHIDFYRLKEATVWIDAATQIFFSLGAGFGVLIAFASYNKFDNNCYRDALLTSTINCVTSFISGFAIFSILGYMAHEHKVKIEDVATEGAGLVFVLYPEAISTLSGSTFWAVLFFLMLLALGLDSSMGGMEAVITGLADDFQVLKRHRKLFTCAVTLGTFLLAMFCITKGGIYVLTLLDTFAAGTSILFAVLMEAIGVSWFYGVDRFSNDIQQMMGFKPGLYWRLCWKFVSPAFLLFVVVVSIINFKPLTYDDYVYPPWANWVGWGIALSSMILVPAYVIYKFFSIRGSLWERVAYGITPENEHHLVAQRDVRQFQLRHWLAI
Procedure: as §1

[7] = biological target: T5, rat dopamine transporter, synaptosomal preparations (Rattus norvegicus, UniProt P23977); assay: Inhibition of [3H]DA reuptake in rat brain synaptosomes (striatum); type: biochemical; conditions: Geometric Mean ± SEM; rat brain synaptosomes; read-out: Inhibitor Constant (Ki), DA transport
T5 construct: and striatal tissues for transport of dopamine; from tissue; host or cells: rat striatum synaptosomes (male Sprague-Dawley)
T5 sequence (P23977 whole entry): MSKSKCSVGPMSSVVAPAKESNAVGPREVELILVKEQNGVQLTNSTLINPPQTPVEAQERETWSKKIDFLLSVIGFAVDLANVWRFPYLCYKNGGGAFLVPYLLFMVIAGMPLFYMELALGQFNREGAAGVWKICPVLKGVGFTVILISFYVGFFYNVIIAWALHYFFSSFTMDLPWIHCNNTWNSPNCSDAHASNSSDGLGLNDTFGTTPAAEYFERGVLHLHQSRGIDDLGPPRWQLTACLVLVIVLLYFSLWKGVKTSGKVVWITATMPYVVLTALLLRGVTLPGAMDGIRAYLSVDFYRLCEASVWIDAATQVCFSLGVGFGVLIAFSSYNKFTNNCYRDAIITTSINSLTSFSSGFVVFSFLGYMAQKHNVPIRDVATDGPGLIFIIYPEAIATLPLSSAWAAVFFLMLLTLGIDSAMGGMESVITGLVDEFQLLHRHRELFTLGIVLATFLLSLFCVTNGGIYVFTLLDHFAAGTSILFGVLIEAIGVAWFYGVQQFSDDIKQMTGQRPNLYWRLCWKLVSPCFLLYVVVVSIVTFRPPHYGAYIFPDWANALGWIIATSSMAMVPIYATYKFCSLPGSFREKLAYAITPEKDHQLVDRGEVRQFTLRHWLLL
Procedure: as §1

[8] = biological target: human norepinephrine transporter (Homo sapiens, UniProt P23975); assay: Inhibition of [3H]NE transport into HEK-293 cells expressing the human transporter; conditions: read-out: Inhibitor Constant (Ki), NE transport; Geometric Mean ± SEM; HEK-293 whole cells
human norepinephrine transporter, sequence (P23975 whole entry): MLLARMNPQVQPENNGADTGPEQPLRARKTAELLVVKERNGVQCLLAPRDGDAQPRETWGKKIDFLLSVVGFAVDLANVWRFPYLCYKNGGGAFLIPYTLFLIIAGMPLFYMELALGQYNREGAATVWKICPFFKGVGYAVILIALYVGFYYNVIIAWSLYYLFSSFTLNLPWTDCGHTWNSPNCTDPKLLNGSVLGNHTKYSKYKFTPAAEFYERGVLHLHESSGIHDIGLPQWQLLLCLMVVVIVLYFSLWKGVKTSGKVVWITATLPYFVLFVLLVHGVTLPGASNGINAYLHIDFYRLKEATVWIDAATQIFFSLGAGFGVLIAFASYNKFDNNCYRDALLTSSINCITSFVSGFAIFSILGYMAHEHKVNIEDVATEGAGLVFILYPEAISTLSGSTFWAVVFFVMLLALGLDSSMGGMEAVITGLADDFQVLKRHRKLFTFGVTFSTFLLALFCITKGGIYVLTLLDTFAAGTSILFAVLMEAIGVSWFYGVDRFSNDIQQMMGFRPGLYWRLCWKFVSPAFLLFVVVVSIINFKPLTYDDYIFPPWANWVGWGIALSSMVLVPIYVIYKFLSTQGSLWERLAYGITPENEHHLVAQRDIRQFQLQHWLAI

[9] = biological target: human dopamine transporter (Homo sapiens, UniProt Q01959); assay: Inhibition of [3H]DA transport into HEK-293 cells expressing the human transporter; conditions: read-out: Inhibitor Constant (Ki), DA transport; Geometric Mean ± SEM; HEK-293 whole cells
human dopamine transporter, sequence (Q01959 whole entry): as the sequence (Q01959 whole entry) above

[10] = biological target: human serotonin transporter (Homo sapiens, UniProt P31645); assay: Inhibition of [3H]5-HT transport into HEK-293 cells expressing the human transporter; conditions: read-out: Inhibitor Constant (Ki), 5-HT transport; Geometric Mean ± SEM; HEK-293 whole cells
human serotonin transporter, sequence (P31645 whole entry): as the sequence (P31645 whole entry) above

| Structure (SMILES) | Effect on locomotor activity (mice; 5 mg/kg IP) | Potency (rank-order of potency of binding; S = hSERT, N = hNET, D = hDAT) (hSERT, hNET, hDAT) | Potency (rank order, transport into rat brain synaptosomal preparations) [1] | Mobility in TST (counts per 6-minute session) vs saline (male C57BL/6J mice; 30 minutes before testing) | Immobility in TST (counts per 6-minute session) vs saline (male C57BL/6J mice) | Effect on locomotor activity (mice; 15 mg/kg IP) | Immobility in forced swim test vs saline (Male Sprague-Dawley rats) | Swimming in forced swim test vs saline (Male Sprague-Dawley rats) | Kd [2] [nM] | Kd [3] [nM] | Potency Range (difference between most potent and least potent binding) (hSERT, hNET, hDAT; ratio of KD over hSERT, hNET, hDAT) [fold] | Potency (rank order, transport into cells expressing human transporters) [4] | Ki [5] [nM] | Ki [6] [nM] | Ki [7] [nM] | Ki [8] [nM] | Ki [9] [nM] | Ki [10] [nM] |
| --- | --- | --- | --- | --- | --- | --- | --- | --- | --- | --- | --- | --- | --- | --- | --- | --- | --- | --- |
| C[C@H](N)Cc1ccccc1 [d-amphetamine, reference compound] | caused a significant effect on locomotor activity | – | – | – | – | – | – | – | – | – | – | – | – | – | – | – | – | – |
| CN(C)CCCN1c2ccccc2CCc2ccccc21 [Imipramine, reference compound] | – | S > N > D | N > S > D | significantly (P<0.02) increased mobility | significantly (P<0.02) reduced immobility | Only d-amphetamine caused a significant effect on locomotor activity | statistically (P<0.04) less immobility | statistically (P<0.04) more swimming behavior | – | – | – | – | – | – | – | – | – | – |
| CNCC(c1ccc2ccccc2c1)C(OC)c1ccccc1 (racemic) [MCJ001-OMe-(±)-SR, (2R,3S/2S,3R)-3-methoxy-N-methyl-2-(naphthalen-2-yl)-3-phenylpropan-1-amine] | – | N = D > S | S > N > D | – | – | – | – | – | 710 ± 50 | 600 ± 100 | 1.2 | N > S > D | 90 ± 36 | 210 ± 30 | 1030 ± 30 | 20 ± 1 | 2400 | 60 ± 7 |
